Assay results reported in publication PMC2685736, “Conservation of a conformational switch in RadA recombinase from Methanococcus maripaludis” (Acta Crystallographica Section D: Biological Crystallography, 2009).

Tests used:
MmRadA [1] = target: T1, MmRadA (Methanococcus maripaludis, UniProt P0CW58); test: X-ray crystallography, […]-2.[…] A; type: binding; settings: Mg2+, pH 7.9; 0.4 M NH4Cl (3ewa), 0.4 M KCl (3ew9) or 0.1 M NH4Cl (3etl); ATPase site at the monomer interface
T1 construct: gene radA; full open reading frame in pET28a (NcoI/XhoI), expressed in E. coli BL21 Rosetta2 (DE3); no tag mentioned; helical filament, nucleotide buried between adjacent monomers; P-loop Gly105-Thr112, His280, Asp302
T1 sequence (P0CW58 whole entry): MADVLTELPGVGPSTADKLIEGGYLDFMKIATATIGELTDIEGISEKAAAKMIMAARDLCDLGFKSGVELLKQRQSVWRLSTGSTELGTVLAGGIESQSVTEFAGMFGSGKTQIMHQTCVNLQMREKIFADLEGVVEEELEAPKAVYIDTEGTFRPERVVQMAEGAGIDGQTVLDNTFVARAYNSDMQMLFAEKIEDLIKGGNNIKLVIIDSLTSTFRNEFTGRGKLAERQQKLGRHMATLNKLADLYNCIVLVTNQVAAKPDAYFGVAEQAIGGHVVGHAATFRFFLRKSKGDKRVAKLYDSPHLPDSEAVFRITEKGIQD

MmRadA [2] = target: T1, MmRadA; test: Malachite Green phosphate release (ATPase); type: biochemical; settings: 5 mM ATP, 10 mM MgCl2, pH 7.4, 100 mM KCl, poly-(dT)36 ssDNA; mere turnover

Question: For `Nc1ncnc2c1ncn2[C@@H]1O[C@H](COP(=O)(O)OP(=O)(O)NP(=O)(O)O)[C@@H](O)[C@H]1O` [AMPPNP], which “X-ray crystallography, 2.0-2.4 A” value (MmRadA [1]) is on record?
Answer: The nonhydrolyzable ATP analogue AMPPNP is buried between the MmRadA monomers as expected.

Question: With `Nc1ncnc2c1ncn2[C@@H]1O[C@H](COP(=O)(O)OP(=O)(O)OP(=O)(O)O)[C@@H](O)[C@H]1O` [ATP] as the compound, how does the “Malachite Green phosphate release (ATPase)” value (MmRadA [2]) read?
Answer: the M. maripaludis protein also actively catalyzed ATP hydrolysis in the presence of potassium
